As a reminder, the Papp B→A is how fast a substance crosses the layer from the basolateral side.

The subject of one series is TrkA-ERK1/2 pathway. Briefly: TrkA-ERK1/2 pathway activation in N2a cells (immunoblotting). Format: cell-based, mouse. As to conditions: basolateral solution. The method, then:
Precisely, [^3H]OligoGM1 (1 × 10^6 dpm) diluted into cold OligoGM1 solution (300 µM) was administered for 240 min to hBLECs in the upper compartment so that at a volume of 0.5 mL there was 150 nmol of OligoGM1. […] After the 240 min incubation period, the basolateral solution was screened to find the quantity of crossed OligoGM1 by measuring ^3H-radioactivity and was then administered to N2a cells for 24 h. For control cells, we administered a basolateral solution derived from hBLECs incubated with Transfectagro without OligoGM1. Morphological signals of neurodifferentiation were evaluated by cell observation and TrkA-ERK1/2 pathway activation was verified by immunoblotting (for procedural details see Supplementary Materials and [22, 23]).
Caco-2 cells are not listed as commonly misidentified cell line by the International Cell Line Authentication Committee. However it is reported that culture condition and cell origin can deeply affect Caco-2 morphology and behavior [4-6]. […]
Since mycoplasma could infect of Caco-2 cells, we validated the absence of any contamination by two methods (data not shown). […] Briefly culture supernatants were mixed with MycoAlert reagents according to manufacturer instruction and the luminescence was measured after 10 min using fluorimeter (BioTek, H1, Vermont, Winooski). […]
It is calculated according to the equation (1): […]

A short description of series [1]: Inverse transport (basolateral to apical, B → A) across hBLECs and efflux ratio. Format: in vitro ADME, human. The conditions noted are these: human, pH 7.4; 50 μM in basolateral compartment, 60 min (Figure 7). The method, then:
For the inverse transport study (related to basolateral → apical flux, B → A), 1.5 mL of 1 × 10^6 dpm of tritiated [^3H]OligoGM1 plus 50 μM OligoGM1 in RH buffer were added to an empty well of a 12-well plate (Figure S3c). Every 20 min up to 60 min, the hBLEC filter filled with 0.5 mL RH buffer was removed and replaced with a new filter with fresh RH buffer.
The apparent permeability, efflux ratio, and endothelial permeability were calculated to estimate the absorption processes of drugs, to predict implication of active transport in the process of drugs absorption, and to more accurately appreciate the transport of a drug across an endothelial barrier, respectively. Detailed information on the equations used to calculate the permeability parameters are reported in the Supplementary Information. […]
where (∆Q/∆t) (μmol/sec) is the rate of permeation (quantity per second) of a molecule across the cell layer, C0 (μmol/cm3) is the donor compartment concentration at time zero and S (cm2) is the area of […]
In the transwell insert system there are two compartments and, analyzing the absorption of a substance, the apparent permeability index can be obtained for the apical to basolateral transport, Papp A → B, and for the inverse, basolateral to apical transport Papp B → A.
To define Papp (1), the Fick's law could be used, which describes the transport of substances through a semipermeable membrane. Given that the initial concentration of the solute in the donor compartment is much higher than the one in the receiver compartment (equal to 0 at t0), and assuming that the solute equally partitions in the two compartments, for small variation of C0, it is possible to integrate and simplify the Fick’s equation to obtain as follows: […]
where ∆Q/∆t corresponds to the amount of solute that crosses the membrane over time, D is the diffusion coefficient of the substance in water, S is the membrane surface, h its thickness and C0 is the concentration of the solute which approximates the initial concentration C0.
The equation (2) can be rewritten as: […]

As to `CC(=O)NC1C(O)CC(OC2C(O)C(OC3C(CO)OC(O)C(O)C3O)OC(CO)C2OC2OC(CO)C(O)C(OC3OC(CO)C(O)C(O)C3O)C2NC(C)=O)(C(=O)O)OC1C(O)C(O)CO` (stereo not drawn) [OligoGM1, β-Gal-(1-3)-β-GalNAc-(1-4)-[α-Neu5Ac-(2-3)]-β-Gal-(1-4)-β-Glc], the “TrkA-ERK1/2 pathway (pTrkA, pERK1/2)” value in the series with TrkA-ERK1/2 pathway is “activation of the TrkA-ERK1/2 pathway”. Moreover, the basolateral-to-apical permeability (Papp B→A) at 60 min, 50 μM in series [1] came out at 8.7 ± 1.4 ×10⁻⁶ cm/s.

The values above are taken from paper PMC7215935, “GM1 Oligosaccharide Crosses the Human Blood–Brain Barrier In Vitro by a Paracellular Route” (International Journal of Molecular Sciences, 2020).
